The text below walks through data of patent publication US20230250436A1, “NUCLEIC ACID THAT INTERACTS WITH A RECEPTOR FOR ENDOCRINE DISRUPTING CHEMICALS AND USE THEREOF” (KUMIAI CHEMICAL INDUSTRY CO., LTD., priority 2020, published 2023).

Assay type in all cases: cell-based
In experiment [1] the test system is juvenile hormone receptor of Daphnia magna (DampaMET). The experiment can be described thus: Yeast reporter (β-galactosidase) assay, transformants with DampaMET and DampaSRC. The arrangement: key to Increase in induction: increase of induction; positive value = reporter activity to substance. As for the experimental part: (§1) Subsequently, a reporter plasmid prepared by inserting the nucleotide sequence shown in SEQ ID NO: 2 into a yeast comprising the DampaMET plasmid and the DampaSRC plasmid introduced thereinto by the lithium acetate method. Thus, Yeast 1 of Invention was obtained. In the same manner, Yeasts 2 to 38 of Invention each comprising the response element according to the present invention and Control yeasts 1 to 9 shown in Table 3 were prepared.
(§2) With the use of the Yeast 1 of Invention, reporter activity to methyl farnesoate as a juvenile hormone substance was measured. At the outset, the Yeast 1 of Invention was subjected to pre-culture at 30° C. for 18 hours using the pre-culture medium shown in Table 1 until the turbidity (O.D. 595) of the pre-culture medium reached approximately 0.1. The solution of the pre-cultured cells (10 μl) and 1 μl of the solution of methyl farnesoate diluted to various concentrations with dimethyl sulfoxide (DMSO) were mixed with 90 μl of the main culture solution shown in Table 4 in a 96-well plate, and the mixture was subjected to static culture at 30° C. for 18 hours to prepare a reaction solution. The resultant was designated as a test group.
(§3) A reaction solution prepared with the addition of 1 μl of DMSO instead of a diluted methyl farnesoate solution was designated as a control group. Fractions of 10 μl each were collected from the reaction solutions and dispensed into each well of another 96-well plate. Thereafter, 100 μl of an assay reagent comprising a lytic solution (Z buffer: 60 mM Na2HPO4, 40 mM NaH2PO4, 1 mM MgCl2, 10 mM KCl, 2 mM dithiothreitol, 0.20% N-lauroylsarcosine sodium salt) mixed with 1 mg/ml ONPG (orthonitrophenylgalactopyranoside) was dispensed into each well, and the reaction was allowed to proceed at 37° C. for 30 minutes. Thereafter, the absorbance (O.D. 405) and the turbidity (O.D. 595) of the reaction solutions were assayed at the wavelength of 405 nm using a microplate reader (tradename: iMark microplate reader, Bio-Rad Laboratories). The increase of induction was calculated in accordance with the following formula.
(§4) The increase of induction is described in Ito-Harashima S et al., FEBS Open Bio., 7 (7): pp. 995-1008, 2017. When the increase of induction is positive, the transformant is determined to have reporter activity to the substance tested. The test was performed once or repeated 3 times, 5 times, or 15 times, and the average increase of induction was calculated. The control yeast 1 was treated in the same manner and reporter activity was compared.
In the same manner as in Test Example 1, the Yeasts 2, 3, 4, 5, 6, 7, 9, 10, 11, 12, 13, 14, 15, 16, 17, 18, 19, and 20 of Invention were subjected to assays of reporter activity to methyl farnesoate. The test was performed in accordance with Test Example 1, and reporter activity of the yeasts indicated above was compared with that of the control yeasts 2, 3, and 4.
With the use of the control yeast 7 comprising a different nucleotide sequence of the C-box (CACGCG) in the response element, the control yeast 8 comprising a different nucleotide sequence of the E-box (CACGTG), and the control yeast 9 comprising different nucleotide sequences of the C-box and the E-box from the relevant nucleotide sequences of the Yeast 4 of Invention, the influence of a core sequence on reporter activity to methyl farnesoate was evaluated. The test was performed in accordance with Test Example 1.
(§5) With the use of the Yeast 4 and the Yeast 8 of the present Invention, reporter activity to sex hormones; i.e., 17β-estradiol and testosterone, insect juvenile hormones; i.e., juvenile hormone III, and chemical substances suspected of having endocrine disrupting actions, such as 4-nonyl phenol, bisphenol A, 1,1,1-trichloro-2,2-bis(4-chlorophenyl)ethane (DDT), 2,2-bis(4-chlorophenyl)-1,1-dichloroethylene (DDE), and dieldrin, was assayed. The test was performed in accordance with Test Example 1. All the test substances were treated at 10 μM. […]

The test system of experiment [2] is juvenile hormone receptor of Drosophila melanogaster (DmMET). The experiment can be described thus: Yeast reporter (β-galactosidase) assay, transformants with DmMET and DmTai. The following applies: test substance 10 μM. How it is done: A plasmid expressing a juvenile hormone receptor of Drosophila melanogaster (hereafter, referred to as a “DmMET plasmid”) was prepared in the same manner. At the outset, ORF of cDNA of the DmMET gene was amplified by PCR using, as a template, cDNA of Drosophila melanogaster larvae (Clontech) and the primers for DmMET: DmMET Fwd (SEQ ID NO: 21) and DmMET Rev (SEQ ID NO: 22). PCR was carried out by repeating a cycle of 98° C. for 10 seconds, 55° C. for 30 seconds, and 68° C. for 1.5 minutes 25 times.
as §1, §2, §3, §4
With the use of the Yeast 4 and the Yeast 8 of the present Invention, reporter activity to sex hormones; i.e., 17β-estradiol and testosterone, insect juvenile hormones; i.e., juvenile hormone III, and chemical substances suspected of having endocrine disrupting actions, such as 4-nonyl phenol, bisphenol A, 1,1,1-trichloro-2,2-bis(4-chlorophenyl)ethane (DDT), 2,2-bis(4-chlorophenyl)-1,1-dichloroethylene (DDE), and dieldrin, was assayed. The test was performed in accordance with Test Example 1. All the test substances were treated at 10 μM. For comparison, reporter activity to compounds was assayed using the control yeast 5 and the control yeast 6 comprising a known juvenile hormone receptor response element (i.e., the JH response element of Drosophila melanogaster) integrated therein.

In experiment [3] the test system is juvenile hormone receptor of Daphnia magna (DampaMET). The experiment can be described thus: Yeast reporter (β-galactosidase) assay, Control yeast 5 with DampaMET, DmTai and DmJHRR. The following applies: Control yeast 5 (DmJHRR x3, DampaMET, DmTai), test substance 10 μM. As for the experimental part: For further comparison, a plasmid comprising a region including the juvenile hormone response element of the Kr-hi gene of Drosophila melanogaster (DmJHRR) inserted thereinto was prepared. DmJHRR is described in He Q et al., J. Biol. Chem., 289 (40), pp. 27874-27885, 2014. A plasmid comprising 3 consecutive repeats of the DmJHRR sequence inserted thereinto was prepared in accordance with the method described above, except that oligo DNA comprising the DmJHRR sequence (SEQ ID NO: 15) was used instead of the oligo DNA shown in SEQ ID NO: 3 and oligo DNA partially complementary to SEQ ID NO: 15 (SEQ ID NO: 16) was used instead of the oligo DNA shown in SEQ ID NO: 4.
as §1, §2, §3, §4, §5

Experiment [4] has the same test system. Nature of the experiment: Yeast reporter assay for antagonist activity in the presence of 10 nM methyl farnesoate. Conditions: Yeast 4 of Invention; test substance 10 μM in the presence of 10 nM methyl farnesoate; 0 = group treated with 10 nM methyl farnesoate. As for the experimental part:
as §2
A reaction solution prepared with the addition of 1 μl of DMSO instead of a diluted methyl farnesoate solution was designated as a control group. Fractions of 10 μl each were collected from the reaction solutions and dispensed into each well of another 96-well plate. […] Thereafter, the absorbance (O.D. 405) and the turbidity (O.D. 595) of the reaction solutions were assayed at the wavelength of 405 nm using a microplate reader (tradename: iMark microplate reader, Bio-Rad Laboratories). The increase of induction was calculated in accordance with the following formula.
The increase of induction is described in Ito-Harashima S et al., FEBS Open Bio., 7 (7): pp. 995-1008, 2017. When the increase of induction is positive, the transformant is determined to have reporter activity to the substance tested. The test was performed once or repeated 3 times, 5 times, or 15 times, and the average increase of induction was calculated. […]
With the use of the yeast 4 of the present invention, antagonist activity of juvenile hormone receptors to endrin, aldrin, and dieldrin was evaluated at 10 μM. […]
A general note: In a reporter assay the amount or activity of a reporter protein is the signal.

Setting [5] is: Yeast 4 of Invention (SEQ ID NO: 2 x4, DampaMET, DampaSRC), test substance 10 μM.
Where [6] appears, read: Yeast 8 of Invention (SEQ ID NO: 2 x4, DmMET, DmTai).
The mark [7] stands for this setting: Control yeast 6 (DmJHRR x3, DmMET, DmTai).
Setting [8] is: Yeast 4 of Invention (SEQ ID NO: 2 x4), test substance 100 μM.

Each structure is given as a SMILES string.

Turning to `CCCCCCCCCc1ccc(O)cc1` [4-nonyl phenol], the Increase in induction in experiment [1] (setting [5]) is recorded as 2.16; in experiment [2] (setting [6]), 1.81.
As for `C[C@]12CC[C@@H]3c4ccc(O)cc4CC[C@H]3[C@@H]1CC[C@@H]2O` [17β-estradiol], the Increase in induction in experiment [1] (setting [5]) is reported as 1.97; in experiment [2] (setting [7]), −0.29; in experiment [2] (setting [6]), 1.01; in experiment [3], −0.14.
As for `ClC1=C(Cl)C2(Cl)C3C4C=CC(C4)C3C1(Cl)C2(Cl)Cl` (stereo not shown) [Aldrin, aldrin], in experiment [4], the “Increase in induction (antagonist activity)” value is reported as −9.02.
In experiment [1] (setting [8]), `CC(C)OC(=O)N[C@H](C(=O)N[C@H](C)c1nc2ccc(F)cc2s1)C(C)C` [Benthiavalicarb isopropyl, benthiavalicarb isopropyl] had an Increase in induction of −0.37.
Turning to `CC(C)(c1ccc(O)cc1)c1ccc(O)cc1` [Bisphenol A, bisphenol A], the Increase in induction in experiment [1] (setting [5]) is listed as 1.14; in experiment [2] (setting [7]) it was −0.23; in experiment [2] (setting [6]) it was 0.52; in experiment [3] it was −0.38.
Turning to `ClC(Cl)=C(c1ccc(Cl)cc1)c1ccc(Cl)cc1` [DDE, 2,2-bis(4-chlorophenyl)-1,1-dichloroethylene], the Increase in induction is 2.15 in experiment [1] (setting [5]), −0.19 in experiment [2] (setting [7]), 1.23 in experiment [2] (setting [6]) and −0.08 in experiment [3].
Consider `Clc1ccc(C(c2ccc(Cl)cc2)C(Cl)(Cl)Cl)cc1` [DDT, 1,1,1-trichloro-2,2-bis(4-chlorophenyl)ethane], for which the Increase in induction in experiment [1] (setting [5]) is 0.65; in experiment [2] (setting [7]) it was −0.24; in experiment [2] (setting [6]), 0.37; in experiment [3], −0.07.
As to `ClC1=C(Cl)[C@]2(Cl)[C@@H]3[C@@H]4C[C@@H]([C@H]5O[C@@H]45)[C@@H]3[C@@]1(Cl)C2(Cl)Cl` [Dieldrin, dieldrin], the Increase in induction in experiment [1] (setting [5]) was 3.85; in experiment [2] (setting [7]) it was −0.02; in experiment [2] (setting [6]) it was 0.89; in experiment [3], 0.00. The “Increase in induction (antagonist activity)” value in experiment [4] is listed as −12.46.
For the compound `ClC1=C(Cl)C2(Cl)C3C4CC(C5OC45)C3C1(Cl)C2(Cl)Cl` (stereo not shown) [Endrin, endrin], the “Increase in induction (antagonist activity)” value in experiment [4] was −0.03.
Turning to `COc1ccc(-n2c(=O)c(C(=O)C3C(=O)CCCC3=O)nc3c(Cl)cccc32)cc1` [Fenquinotrione, fenquinotrione], in experiment [1] (setting [8]), the Increase in induction is recorded as −0.24.
On to `COC(=O)/C=C(\C)CC/C=C(\C)CC[C@H]1OC1(C)C` [Juvenile hormone III, juvenile hormone III], for which the Increase in induction in experiment [1] (setting [5]) was 6.20; in experiment [2] (setting [7]) it was 0.58; in experiment [2] (Control yeast 6 (DmJHRR x3, DmMET, DmTai), listed as juvenile hormone III) it was “induced”; in experiment [2] (setting [6]), 1.45; in experiment [3], 0.41; in experiment [3] (listed as juvenile hormone III) it was “induced”.
As for `CC#Cc1cc(C)nc(Nc2ccccc2)n1` [Mepanipyrim, mepanipyrim], in experiment [1] (setting [8]), the Increase in induction is listed as −0.76.
The compound `COC(=O)NCc1cc(/C(C)=N/OCc2cccc(C)n2)ccc1Cl` [Pyribencarb, pyribencarb] yielded an Increase in induction in experiment [1] (setting [8]) of −0.24.
As for `Cn1nc(C(F)(F)F)c(CS(=O)(=O)C2=NOC(C)(C)C2)c1OC(F)F` [Pyroxasulfone, pyroxasulfone], the Increase in induction in experiment [1] (setting [8]) is listed as −0.50.
As to `C[C@]12CC[C@H]3[C@@H](CCC4=CC(=O)CC[C@@]43C)[C@@H]1CC[C@@H]2O` [Testosterone, testosterone], the Increase in induction is recorded as 1.78 in experiment [1] (setting [5]), −0.22 in experiment [2] (setting [7]), 0.98 in experiment [2] (setting [6]) and −0.02 in experiment [3].
